{"source": "patent US20250380702A1", "about": "“HERBICIDAL MIXTURES COMPRISING L-GLUFOSINATE OR ITS SALT AND A SECOND HERBICIDE” (BASF SE, priority 2022, published 2025)", "experiment_in_all_cases": "Greenhouse post emergence treatment, herbicidal activity", "key": {"[1]": {"test_system": "KCHSC", "assay_type": "in vivo, Bassia scoparia", "settings": "for % activity: solo application, post emergence, 7 DAT", "text": "(§1) Synergism can be described as an interaction where the combined effect of two or more compounds is greater than the sum of the individual effects of each of the compounds. The presence of a synergistic effect in terms of percent control, between two mixing partners (X and Y) can be calculated using the Colby equation (Colby, S. R., 1967, Calculating Synergistic and Antagonistic Responses in Herbicide Combinations, Weeds, 15, 21-22):\n(§2) When the observed combined control effect is greater than the expected (calculated) combined control effect (E), then the combined effect is synergistic.\n(§3) The culture containers used were plastic flowerpots containing loamy sand with approximately 3.0% of humus as the substrate. The seeds of the test plants were sown separately for each species and/or resistant biotype. For the pre-emergence treatment, the active ingredients, which had been suspended or emulsified in water, were applied directly after sowing by means of finely distributing nozzles. The containers were irrigated gently to promote germination and growth and subsequently covered with transparent plastic hoods until the plants had rooted. This cover caused uniform germination of the test plants, unless this had been impaired by the active ingredients. For the post-emergence treatment, the test plants were first grown to a height of 3 to 15 cm, depending on the plant habit, and only then treated with the active ingredients which had been suspended or emulsified in water. For this purpose, the test plants were either sown directly and grown in the same containers, or they were first grown separately as seedlings and transplanted into the test containers a few days prior to treatment. Depending on the species, the plants were kept at 10-25° C. or 20-35° C., respectively. The test period extended to 20 days after treatment. During this time, the plants were tended, and their response to the individual treatments was evaluated. The evaluation was carried out by using a scale from 0 to 100. 100 means no emergence of the plants or complete destruction of at least the above-ground parts, and 0 means no damage, or normal course of growth.\n(§4) As indicated in the respective examples, assessment was either after 7 days or 20 days after treatment (DAT)."}, "[2]": {"test_system": "CHEAL", "assay_type": "in vivo, Chenopodium album", "settings": "solo application, 7 DAT", "text": "as §1, §2, §3, §4"}, "[3]": {"test_system": "POLAV", "assay_type": "in vivo, Polygonum aviculare", "settings": "solo application, 7 DAT", "text": "as §1, §2, §3, §4"}, "[4]": {"test_system": "AVEFA", "assay_type": "in vivo, Avena fatua", "settings": "solo application, 7 DAT", "text": "as §1, §2, §3, §4"}, "[5]": {"test_system": "ABUTH", "assay_type": "in vivo, Abutilon theophrasti", "settings": "solo application; for inhibition at 250 g/ha: Abutilon theophrasti, 250 gai/ha", "text": "as §1, §2, §3, §4"}, "[6]": {"test_system": "Volunteer HORVS", "assay_type": "in vivo, Volunteer Barley", "settings": "for % activity: solo application, post emergence", "text": "as §1, §2, §3, §4"}, "[7]": {"settings": "Bassia scoparia, post-emergence, 168 h, read-out: % activity"}}, "note": "Where “and” joins values, the source holds several entries; their conditions need not be identical. Equal entries are not always repeated. Where two headings read alike, the source gives them in different places."}
{"smiles": "CP(=O)(O)CC[C@H](N)C(=O)O.N", "note": "[L-Glu, ammonium (2S)-2-amino-4-(methylphosphinato) butyric acid]", "values": [{"measurement": "inhibition at 250 g/ha", "setting": "[1]; [7]", "value": 88, "unit": "%"}, {"measurement": "inhibition at 500 g/ha", "setting": "[1]; [7]", "value": 88, "unit": "%"}, {"measurement": "inhibition at 1000 g/ha", "setting": "[1]; [7]", "value": 90, "unit": "%"}, {"measurement": "inhibition at 500 g/ha", "setting": "[2]; Chenopodium album, 168 h, 500 gai/ha", "value": 95, "unit": "%"}, {"measurement": "inhibition at 1000 g/ha", "setting": "[2]; Chenopodium album, 168 h, 1000 gai/ha", "value": 95, "unit": "%"}, {"measurement": "inhibition at 500 g/ha", "setting": "[3]; Polygonum aviculare, 168 h, 500 gai/ha", "value": 95, "unit": "%"}, {"measurement": "inhibition at 1000 g/ha", "setting": "[3]; Polygonum aviculare, 168 h, 1000 gai/ha", "value": 95, "unit": "%"}, {"measurement": "inhibition at 500 g/ha", "setting": "[4]; Avena fatua, 168 h, 500 gai/ha", "value": 90, "unit": "%"}, {"measurement": "inhibition at 1000 g/ha", "setting": "[4]; Avena fatua, 168 h, 1000 gai/ha", "value": 90, "unit": "%"}, {"measurement": "inhibition at 250 g/ha", "setting": "[5]; 168 h, 7 DAT", "value": 75, "unit": "%"}, {"measurement": "inhibition at 250 g/ha", "setting": "[5]; 480 h, 20 DAT", "value": 60, "unit": "%"}, {"measurement": "inhibition at 125 g/ha", "setting": "[6]; Hordeum vulgare, post-emergence, 168 h, read-out: % activity, solo application, 125 gai/ha, post emergence, 7 DAT", "value": 90, "unit": "%"}, {"measurement": "inhibition at 250 g/ha", "setting": "[6]; Hordeum vulgare, post-emergence, 168 h, read-out: % activity, solo application, 250 gai/ha, post emergence, 7 DAT", "value": 90, "unit": "%"}, {"measurement": "inhibition at 500 g/ha", "setting": "[6]; Hordeum vulgare, post-emergence, 168 h, read-out: % activity, solo application, 500 gai/ha, post emergence, 7 DAT", "value": 95, "unit": "%"}, {"measurement": "inhibition at 250 g/ha", "setting": "[6]; Hordeum vulgare, post-emergence, 480 h, read-out: % activity, solo application, 250 gai/ha, post emergence, 20 DAT", "value": 75, "unit": "%"}, {"measurement": "inhibition at 500 g/ha", "setting": "[6]; Hordeum vulgare, post-emergence, 480 h, read-out: % activity, solo application, 500 gai/ha, post emergence, 20 DAT", "value": 85, "unit": "%"}, {"measurement": "% activity", "setting": "[6]; 125 gai/ha, 20 DAT", "value": "65% and 35%"}]}
{"smiles": "CN1C[C@H](c2cccc(C(F)(F)F)c2)[C@@H](C(=O)Nc2ccccc2F)C1=O", "note": "[Tetflupyrolimet]", "values": [{"measurement": "% activity", "setting": "[1]; 25 gai/ha", "value": 0, "unit": "%"}, {"measurement": "% activity", "setting": "[1]; 50 gai/ha", "value": 0, "unit": "%"}, {"measurement": "% activity", "setting": "[1]; 100 gai/ha", "value": 2.5, "unit": "%"}, {"measurement": "% activity", "setting": "[2]; 50 gai/ha", "value": 15, "unit": "%"}, {"measurement": "% activity", "setting": "[2]; 100 gai/ha", "value": 25, "unit": "%"}, {"measurement": "% activity", "setting": "[3]; 50 gai/ha", "value": 5, "unit": "%"}, {"measurement": "% activity", "setting": "[3]; 100 gai/ha", "value": 5, "unit": "%"}, {"measurement": "% activity", "setting": "[4]; 50 gai/ha", "value": 0, "unit": "%"}, {"measurement": "% activity", "setting": "[4]; 100 gai/ha", "value": 0, "unit": "%"}, {"measurement": "% activity", "setting": "[5]; 25 gai/ha, 7 DAT", "value": 0, "unit": "%"}, {"measurement": "% activity", "setting": "[5]; 25 gai/ha, 20 DAT", "value": 0, "unit": "%"}, {"measurement": "% activity", "setting": "[5]; 100 gai/ha, 7 DAT", "value": 0, "unit": "%"}, {"measurement": "% activity", "setting": "[5]; 100 gai/ha, 20 DAT", "value": 0, "unit": "%"}, {"measurement": "% activity", "setting": "[6]; 12.5 gai/ha, 7 DAT", "value": 0, "unit": "%"}, {"measurement": "% activity", "setting": "[6]; 12.5 gai/ha, 20 DAT", "value": "5% and 0%"}, {"measurement": "% activity", "setting": "[6]; 25 gai/ha, 7 DAT", "value": 0, "unit": "%"}, {"measurement": "% activity", "setting": "[6]; 25 gai/ha, 20 DAT", "value": 5, "unit": "%"}, {"measurement": "% activity", "setting": "[6]; 50 gai/ha, 7 DAT", "value": 0, "unit": "%"}, {"measurement": "% activity", "setting": "[6]; 50 gai/ha, 20 DAT", "value": 5, "unit": "%"}, {"measurement": "% activity", "setting": "[6]; 100 gai/ha, 7 DAT", "value": 5, "unit": "%"}]}
